The text below walks through data of US20080188562A1, “TREATING […] USING PRODRUGS OF […] PREGABALIN” (priority 2006, published 2008).

A short description of data set [1]: Randomized, crossover, fed/fasted single-dose pharmacokinetics study of oral sustained release tablets of compound (3). Type of data set: in vivo, human. The settings on record: tablets 2×600 mg oral. As for the experimental part:
A randomized, crossover, fed/fasted single-dose study of the safety, tolerability, and pharmacokinetics of oral administration of 1-{[(α-isobutanoyloxyethoxy)carbonyl]aminomethyl}-1-cyclohexane acetic acid (3) in healthy adult subjects was conducted. The oral sustained release dosage form of Example 6 was used in this study. The study was designed to evaluate the performance of this formulation in humans in comparison with the commercial gabapentin capsule formulation (Neurontin®, Pfizer). Twelve healthy adult volunteers (7 males and 5 females) participated in the study. Mean body weight was 75.6 kg. All subjects received two different treatments in a random order with a one-week washout between treatments.
Blood and plasma samples were collected from all subjects prior to dosing, and at 0.5, 1, 1.5, 2, 3, 4, 6, 8, 12, 18, 24, and 36 hours after dosing. Urine samples were collected from all subjects prior to dosing, and complete urine output was obtained at the 0-4 h, 4-8 h, 8-12 h, 12-18 h, 18-24 h, and 24-36 h intervals after dosing. Blood samples were quenched immediately with methanol and stored frozen at <70° C. Sample aliquots were prepared for analysis of gabapentin and compound (3) using sensitive and specific LC/MS/MS methods.

The subject of data set [2] is acoustic trauma-induced tinnitus. The settings on record: animals; Bauer and Brozoski 2001; cited from earlier work.
For data set [3] the following is noted: cited from earlier work.
Data set [4] has as its system tinnitus. The settings on record: doses up to 2,400 mg/day; Bauer and Brozoski 2006; cited from earlier work.

Molecules are shown by their SMILES.

In the case of `CC(OC(=O)NCC1(CC(=O)O)CCCCC1)OC(=O)C(C)C` (stereo not drawn) [compound (3), 1-{[(α-Isobutanoyloxyethoxy)carbonyl]aminomethyl}-1-Cyclohexane Acetic Acid], in data set [1] (fasted), the “AUC of compound (3) in blood as percent of corresponding AUC of gabapentin in blood” value is reported as 0.3%, the “Maximum concentration of intact compound (3) as percent of corresponding peak gabapentin concentration” value is given as “approximately 1.0%” and the “Maximum concentration of intact compound (3) in blood” value worked out at 0.040 µg/mL. For the same compound, in data set [1] (fed), the “AUC of compound (3) in blood as percent of corresponding AUC of gabapentin in blood” value is listed as “less than 0.1%”, the “Maximum concentration of intact compound (3) as percent of corresponding peak gabapentin concentration” value was “approximately 0.3%” and the “Maximum concentration of intact compound (3) in blood” value amounted to 0.018 µg/mL.

For the compound `NCC1(CC(=O)O)CCCCC1` [gabapentin], the “Attenuation of acoustic trauma-induced tinnitus” value in data set [2] was “effective in reversibly attenuating acoustic trauma-induced tinnitus in animals”. Also, the “Typical Tmax of immediate release gabapentin” value in data set [3] is 2 to 4 h. Further, in data set [4], the “Efficacy in treating tinnitus” value is “effective in treating tinnitus”.
